# Assay results taken from patent US10711244B2, “Mammalian neural plate border stem cells capable of forming neural tube and neural crest cell lineages including central and peripheral neurons” (Max-Planck-Gesellschaft zur Förderung der Wissenschaften …, priority 2012, dated 2020).
# Key:
# Type in all cases: cell-based, human
# [1] = tested on: differentiating hEBs; assay: NPBSC derivation from EBs with CHIR and/or PMA; details: EBs treated with the indicated small molecules; morphology, neural markers
# Protocol: For generation of NPBSCs from pluripotent stem cells, colonies were detached from the MEFs three to four days after splitting, using 2 mg/ml collagenase IV (Invitrogen). Colony pieces were collected by sedimentation and resuspended in hESC medium (without FGF2) supplemented with 10 μM SB-431542 (Ascent Scientific), 1 μM dorsomorphin (Tocris) for neural induction, as well as 3 μM CHIR 99021 (Axon Medchem), 0.5 μM PMA (Alexis) and cultured in petri dishes. Medium was replaced on day two by N2B27 supplemented with the same small molecule supplements. N2B27 consisted of DMEM-F12 (Invitrogen)/Neurobasal (Invitrogen) 50:50 with 1:200 N2 supplement (Invitrogen), 1:100 B27 supplement lacking vitamin A (Invitrogen) with 1% Penicillin/Streptomycin/Glutamine (PAA). On day four, SB-431542 and dorsomorphin were withdrawn and 150 μM Ascorbic Acid (AA; Sigma) was added to the medium. […] BD Biosciences) 12 well plates at a density of about ten to fifteen per well in NPBSC expansion medium (N2B27 with CHIR, PMA and AA). For coating, Matrigel was diluted to a final dilution of 1:100 in Knockout DMEM (Invitrogen) prior to coat 500 μl per well of a 12 well plate over night. Coated plates were wrapped with Parafilm and kept in the fridge for up to one month. The first split was performed at a 1:5 to 1:10 ratio on day 2 to 4 after plating. All the remaining splitting ratios were 1:10. […]
# [2] = tested on: NPBSCs; assay: Dorsoventral patterning of NPBSCs by CHIR and PMA (qRT-PCR, immunostaining)
# Protocol: Total RNA was isolated from cultured cells using RNeasy columns (Qiagen), according to manufacturer instructions, including an on-column DNase digest. Isolated RNA was reverse-transcribed using M-MLV Reverse Transcriptase (USB) with oligo-[…] primers (Metabion) for 1 h at 42° C. qRT-PCR was performed on an Applied Biosystems 7500 Real-Time PCR system with SYBR green PCR master mix (ABI) and 56 ng of original RNA equivalents per 20 μl PCR reaction. Cycling conditions were 40 cycles of 15 s, 95° C./60 s 60° C. Relative expression levels were calculated using the […] method, normalized to biological reference samples and using GAPDH and ACTB as housekeeping genes. Next, we sought to determine if NPBSCs remain competent for WNT and SHH mediated patterning of neural fate commitment. […] SHH signaling opposes dorsal neural fates and specifies ventral fates (Ulloa and Briscoe, 2007). […] Therefore, we conclude that NPBSCs are receptive to WNT and SHH induced dorsoventral patterning of neural fate specification. […] As such, the upregulation of these markers by NPBSCs could also be because of assuming a neural plate border and/or neural crest identity. To test this possibility, we assessed the responsiveness of the CNS progenitor marker SOX1 to SHH and WNT signaling. […] The inhibition by CHIR is the same that induced MSX1 and PAX3 upregulation.
# [3] = tested on: NPBSCs; assay: Neural rosette formation by NPBSC colonies cultured with FGF2
# Protocol: (§1) For confocal microscopy, cells were plated on Matrigel-coated glass coverslips. Cultures were fixed for 20 minutes with 4% paraformaldehyde (Electron Microscopy Sciences) in PBS (Invitrogen) and washed twice with PBS. Permeabilization and blocking was done in one step using 0.1% Triton X-100 (Sigma Aldrich), 10% fetal calf serum (PAA) and 1% BSA in PBS for 45 minutes. Plates or coverslips were washed once with 0.1% BSA in PBS and the primary antibodies applied overnight at 4° C. in 1% BSA in PBS. The next day, following one washing step with 0.1% BSA in PBS, secondary antibodies were applied for one hour at room temperature in 1% BSA in PBS. Finally, cells were washed three times with 0.1% BSA in PBS-T (0.05% Tween 20), including a Hoechst counterstaining for nuclei in the second washing step. Cells were mounted in Vectashield mounting medium (Vector Labs) and imaged on a Zeiss PALM/Axiovert fluorescence microscope or a Zeiss LSM700 confocal microscope. If necessary, images were merged using ImageJ and Adobe Photoshop.
# We tested this by culturing NPBSC colonies in the presence of FGF2, which has previously been reported to induce neural rosette formation by hEBs that have been plated (Zhang et al., 2001). […] For further characterization, we immunostained for ZO-1, which is expressed by neural rosettes but spatially localized to the apical surface (Elkabetz et al., 2008).
# [4] = tested on: NPBSCs; assay: Directed differentiation of NPBSCs into PNS neurons
# Protocol: For generation of PNS neurons, NPBSCs two days after splitting were switched to N2B27 with only CHIR for two days. Afterward, 10 ng/ml BMP4 (R&D Systems) was added for eight days. Splitting and maturation was performed as described for the generation of motor neurons. For astrocyte and mesenchymal neural crest differentiation, NPBSCs were cultured with DMEM (PAA) with 10% fetal calf serum (PAA) and 1% Pen/Strep/Glutamin (PAA), beginning two days after splitting. Cultures were split twice at a 1:3 ratio when confluent using trypsin (Invitrogen).
# as §1
# Total RNA was isolated from cultured cells using RNeasy columns (Qiagen), according to manufacturer instructions, including an on-column DNase digest. […] Relative expression levels were calculated using the 2^−2Δ method, normalized to biological reference samples and using GAPDH and ACTB as housekeeping genes. […]
molecule,measurement,setting,value
"Cc1cnc(-c2cnc(NCCNc3ccc(C#N)cn3)nc2-c2ccc(Cl)cc2Cl)[nH]1 [CHIR, 6-[[2-[[4-(2,4-dichlorophenyl)-5-(5-methyl-1H-imidazol-2-yl)-2-pyrimidinyl]amino]ethyl]amino]-3-pyridinecarbonitrile]",outcome of NPBSC derivation from EBs,[1],produced many non-neural cells
same,SOX1 expression,[2]; 6 days,inhibited
same,expression of dorsal neural progenitor markers MSX1 and PAX3,[2]; 6 days culture,upregulated
"FGF2: basic fibroblast growth factor, a member of the fibroblast growth factor family",neural rosette formation,[3]; NPBSC colonies cultured with FGF2 for 2 days,numerous neural rosettes were formed
same,ZO-1 expression localization,[3]; immunostaining after FGF2 treatment,re-oriented to the apical surface of the rosettes
"BMP4: activator of the BMP signalling pathway (Gene Symbol BMP4), from R&D Systems (protein, UniProt P12644 293-408, looked up) Bone morphogenetic protein 4: SPKHHSQRARKKNKNCRRHSLYVDFSDVGWNDWIVAPPGYQAFYCHGDCPFPLADHLNSTNHAIVQTLVNSVNSSIPKACCVPTELSAISMLYLDEYDKVVLKNYQEMVVEGCGCR",PERIPHERIN immunostaining of neurons,[4]; 8 days BMP4,majority of the neurons were PERIPHERIN-positive
same,effect on neurogenesis,[4]; 8 days treatment,did not inhibit neurogenesis
same,PERIPHERIN and BRN3A expression,"[4]; qRT-PCR, 8 days of treatment",upregulated
